Source: BindingDB's records for doi:10.1016/j.bmc.2012.08.058 (Purdue University, 2012)

Tests used:
D(3) dopamine receptor [1] = target: T1, D(3) dopamine receptor (Homo sapiens, UniProt P35462); experiment: Agonist activity at dopamine D3 receptor in human U2OS-D3 cells assessed as EA-tagged beta-arrestin translocation after 1.5 hrs by luminescence based beta-galactosidase assay
D(3) dopamine receptor [2] = target: T1, D(3) dopamine receptor; experiment: Displacement of [3H]-N-methylspiperone from human dopamine D3 receptor expressed in HEK293 cells after 30 mins by scintillation counting
D(2) dopamine receptor = D(2) dopamine receptor (Homo sapiens, UniProt P14416); experiment: Displacement of [3H]-N-methylspiperone from human dopamine D2long receptor expressed in HEK293 cells after 30 mins by scintillation counting
D(2) dopamine receptor, sequence (P14416 whole entry): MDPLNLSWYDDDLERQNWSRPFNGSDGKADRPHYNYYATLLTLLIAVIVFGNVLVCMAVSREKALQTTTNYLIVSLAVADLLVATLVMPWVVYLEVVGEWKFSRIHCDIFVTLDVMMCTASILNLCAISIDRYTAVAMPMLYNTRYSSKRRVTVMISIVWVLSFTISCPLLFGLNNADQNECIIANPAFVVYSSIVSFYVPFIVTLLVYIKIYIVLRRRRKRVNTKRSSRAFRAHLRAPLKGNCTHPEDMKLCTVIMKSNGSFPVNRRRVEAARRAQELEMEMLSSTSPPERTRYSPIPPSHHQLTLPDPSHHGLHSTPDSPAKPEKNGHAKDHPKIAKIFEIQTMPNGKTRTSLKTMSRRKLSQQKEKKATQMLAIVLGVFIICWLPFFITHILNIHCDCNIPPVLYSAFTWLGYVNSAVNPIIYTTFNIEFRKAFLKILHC

T1 sequence (P35462 as listed by the source): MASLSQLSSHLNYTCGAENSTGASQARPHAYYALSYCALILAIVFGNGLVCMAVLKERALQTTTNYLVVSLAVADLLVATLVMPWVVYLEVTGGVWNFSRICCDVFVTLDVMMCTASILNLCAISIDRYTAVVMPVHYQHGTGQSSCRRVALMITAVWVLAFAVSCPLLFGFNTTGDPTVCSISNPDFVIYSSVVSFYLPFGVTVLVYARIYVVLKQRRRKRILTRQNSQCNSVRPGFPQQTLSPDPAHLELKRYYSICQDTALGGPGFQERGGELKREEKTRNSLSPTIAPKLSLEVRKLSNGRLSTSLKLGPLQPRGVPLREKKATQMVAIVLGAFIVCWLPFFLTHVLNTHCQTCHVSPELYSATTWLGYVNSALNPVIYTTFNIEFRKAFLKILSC

## CCCN1C[C@H](c2ccc(O)cc2)C[C@@H]2c3cc(O)c(O)cc3CC[C@H]21
D(3) dopamine receptor [1]
  EC50: 0.046 µM
D(3) dopamine receptor [2]
  Ki: 0.0011 µM
D(2) dopamine receptor
  Ki: 0.16 µM
